Read-outs that look alike come from different tables or passages of the source.
Assays:
[1] = target: T1, human α2-GABAA receptor (BZD site, membrane protein of HEK293 cells) (Homo sapiens, UniProt P18507+P47869); experiment: Radioligand competitive binding assay (3H-flunitrazepam) at the BZD site of the α2-GABAA receptor
T1 construct: expressed in transfected cells
From the text: (§1) α subunit, β subunit, and γ subunit are essential for the formation of a complete and functional GABAA receptor. In this example of the present disclosure, HEK293 cells stably expressing the human α1-GABAA receptor (α1-GABAAR) and α2-GABAA receptor (α2-GABAAR) were constructed and separately selected using the lipofection method (Felgner, P. L., et al. Proceedings of the National Academy of Sciences, 1987, 84: 7413-7417). The α1-GABAAR-HEK293 cell model simultaneously expressed the α1 subunit (for protein sequence, see GenBank accession No.: NM_000806.5), the […] (for protein sequence, see GenBank accession No.: NM_000814.5), and the […] (for protein sequence, see GenBank accession No.: NM_000816.3). The α2-GABAAR-HEK293 cell model simultaneously expressed the α2 subunit (for protein sequence, see GenBank accession No.: NM_000807.4), the β3 subunit (for protein sequence, see GenBank accession No.: NM_000814.5), and the γ2 subunit (for protein sequence, see GenBank accession No.: NM_000816.3).
(§2) The above cell lines were subcultured. The α2-GABAAR-HEK293 cells were expanded for testing the affinity of compounds to the benzodiazepine (BZD) site of the GABAA receptor. During the passage process, some of the α1-GABAAR-HEK293 cells and α2-GABAAR-HEK293 cells were suspended and plated on a slide pre-treated with Poly-D-Lysine for electrophysiological testing (method referenced from patent CN107344936A, paragraph 0586).
The affinity of the compounds for the α2-GABAA receptor was determined by competing for the binding of ^3H-flunitrazepam (isotope ^3H-labelled flunitrazepam) to the BZD site on the membrane protein of HEK293 cells stably expressing the human α2-GABAAR.
Membrane preparation: Cells were suspended in 50 mM Tris-HCl buffer (pH=7.4), homogenized 10 times for 20 seconds with a homogenizer on ice, and centrifuged at 1000 g for 10 minutes at 4° C. The supernatant was taken, and the above steps were repeated. The supernatant was centrifuged at 4° C. (33800 g; Thermo, rotor: A27-8×50) for 60 minutes. The precipitate was resuspended in Tris buffer (50 mM Tris-HCl, 10 mM MgCl2, 0.5 mM EDTA, and 10% glycerol). The protein content was determined (BCA (bicinchoninic acid) protein quantification assay based on copper ion reduction, with a BCA kit purchased from Pierce (Annoron (Beijing) Biotechnology Co., Ltd.)), and 1 mL aliquots were prepared and stored at −80° C.
Radioligand competitive binding assay: This assay was performed in a 200 μL system (96-well plate) containing 100 μL of cell membrane. The concentration of ^3H-flunitrazepam was 1 nM, and the concentrations of the test compounds were in the range of […]. Flumazenil was used as a control. 1 μL of 2 mM flumazenil (final […]) was added to each low signal control (low control, LC) well, and 1 μL of dimethyl sulfoxide was added to each high signal control (high control, HC) well. The final concentration of target membrane protein was […]. All sample stock solutions of test compounds were 10 mM dimethyl sulfoxide solutions. All the samples were diluted to a concentration of 0.2 mM with dimethyl sulfoxide, and then subjected to a 4-fold serial dilution for a total of 8 working concentration gradients. The 96-well plate was sealed with a sealing membrane and then incubated on a shaker at room temperature for 1 hour. Meanwhile, a GF/C filter plate was soaked in plate soaking buffer (0.3% PEI (polyethyleneimine, purchased from Sigma-Aldrich, model: P314), stored at 4° C.) for at least 0.5 hours. After the binding incubation was completed, the cells were harvested onto the GF/C filter plate using a cell harvester and washed four times with plate washing buffer (50 mM Tris-HCl, pH 7.4, stored at 4° C.). After drying in an oven at 50° C. for 1 hour, the dried GF/C filter plate was bottom-sealed. The residual radioactivity on the filter membrane was detected by liquid scintillation counting.

[2] = target: T2, human α1-GABAA receptor (α1-GABAAR-HEK293 cells) (Homo sapiens, UniProt P14867+P18507); experiment: Whole-cell patch-clamp electrophysiology, positive allosteric modulatory activity on α1-GABAA receptor; assay type: cell-based; conditions: read-out: α1-GABAA positive allosteric modulatory activity
T2 construct: expressed in transfected cells
From the text: as §1, §2
(§3) The positive regulatory activity of the test drugs on the α1-GABAA receptor and the α2-GABAA receptor was detected by the electrophysiological method. The specific method was as follows:
(§4) Compound concentration setting: The final concentration of the compounds used for screening was 100 nM. For cell lines expressing the α1-GABAA receptor, the concentration of GABA was 0.05 to 0.07 μM (approximately EC2-4). For cell lines expressing the α2-GABAA receptor, the concentration of GABA was 0.10 to 0.11 μM (approximately EC7-8). Electrophysiological testing was performed using the whole-cell patch-clamp technique, which can refer to the method reported in the literature (Nickolls, S. A., et al. British Journal of Pharmacology, 2018, 175: 708-725). The composition of the extracellular solution (ECS) for electrophysiology was as follows: 150 mM NaCl, 5 mM KCl, 2.5 mM CaCl2, 1 mM MgCl2, 10 mM HEPES, and 10 mM glucose (pH 7.4). The formulation of the intracellular solution (ICS) for electrophysiology was as follows: 140 mM CsCl, 11 mM EGTA, 10 mM HEPES, 2 mM CaCl2, 1 mM MgCl2, 4 mM MgATP, and 2 mM TEA (pH 7.3). GABA (γ-aminobutyric acid) powder was prepared into a mother liquor with pure water, which was then diluted in ECS. The compound was first prepared into a 4 mM mother liquor with dimethyl sulfoxide, which was then gradually diluted in the corresponding concentration of GABA-ECS. The solutions were freshly prepared prior to electrophysiological testing.
(§5) Electrophysiological signal acquisition was performed using an EPC 10 amplifier and PatchMaster software (HEKA) or an Axon 700B amplifier and Clampex software (AXON). The recording electrode was made through a drawing process using borosilicate glass, with an electrode resistance of 4 to 6 MΩ. Extracellular administration was performed using the ALA-VC-8PG™ system. A single, independently growing cell was selected. After the glass electrode formed a good seal with the cell, the membrane was ruptured to form the whole-cell configuration. The cell membrane potential was clamped at −60 mV and recorded in Gap-free mode. During the test, the extracellular solution was first applied extracellularly for approximately 20 seconds. After the baseline (Iprebaseline) stabilized, the extracellular solution was switched to GABA-ECS. At this point, the current induced by GABA (Igaba) could be detected. After approximately 10 to 20 seconds, when the current stabilized, the extracellular solution was switched to a mixture of the compound and GABA-ECS. […]

[3] = target: T3, human α2-GABAA receptor (α2-GABAAR-HEK293 cells) (Homo sapiens, UniProt P18507+P47869); experiment: Whole-cell patch-clamp electrophysiology, positive allosteric modulatory activity on α2-GABAA receptor; assay type: cell-based; conditions: read-out: α2-GABAA positive allosteric modulatory activity
T3 construct: expressed in transfected cells
From the text: as §1, §2, §3, §4, §5

[4] = competition with 1 nM 3H-flunitrazepam, Ki calculated from IC50, read-out: α2 Ki

Ki [1, 4] [nM] | activation at 0.1 µM [2] [%] | activation at 0.1 µM [3] [%] | Compound | Ki [1] [nM] | Ki ([1]; read-out: α2 Ki, competition with 1 nM 3H-flunitrazepam, Ki calculated from IC50) [nM]
3.51 | 37 | 81 | CCn1cnc2c(-c3ccc(F)c(-c4cc5cn([C@H]6CCN(C)C[C@@H]6F)nc5cc4OC)c3)cnnc21 (racemic) [Example 63, 7-Ethyl-4-(4-fluoro-3-(2-((3S,4S)-3-fluoro-1-methylpiperidin-4-yl)-6-methoxy-2H-indazol-5-yl)phenyl)-7H-imidazo[4,5-c]pyridazine] | – | –
4.76 | 79 | 130 | CC[C@H]1Oc2cc(-c3cc(-c4cnnc5c4ncn5CC)ccc3F)c(OC)cc2N(C)C1=O (single isomer, unassigned) [Example 8] | – | –
28.2 | 68 | 142 | CCn1cnc2c(-c3ccc(F)c(-c4cc5c(cc4OC)ncn5C4COC4)c3)cnnc21 (single isomer, unassigned) [Example 135, 7-Ethyl-4-(4-fluoro-3-(5-methoxy-1-(oxetan-3-yl)-1H-benzo[d]imidazol-6-yl)phenyl)-7H-imidazo[4,5-c]pyridazine] | – | –
14.5 | 42 | 114 | CCn1cnc2c(-c3ccc(F)c(-c4cc5c(cc4OC)N(C)C(=O)C(COC)O5)c3)cnnc21 (single isomer, unassigned) [Example 162] | – | –
6 | 13 | 151 | CCn1cnc2c(-c3ccc(F)c(-c4cc5cc(C(C)=O)c(=O)n(C)c5cc4OC)c3)cnnc21 [Example 1, 3-Acetyl-6-(5-(7-ethyl-7H-imidazo[4,5-c]pyridazin-4-yl)-2-fluorophenyl)-7-methoxy-1-methylquinolin-2(1H)-one] | – | –
26.9 | 1 | 98 | CCn1cnc2c(-c3ccc(F)c(-c4cc5c(cc4OC)-c4c(cnn4C)CO5)c3)cnnc21 [Example 10, 7-(5-(7-Ethyl-7H-imidazo[4,5-c]pyridazin-4-yl)-2-fluorophenyl)-8-methoxy-1-methyl-1,4-dihydrochromeno[4,3-c]pyrazole] | – | –
16.4 | 75 | 97 | CCn1cnc2c(-c3ccc(F)c(-c4ccc5c(nnn5CC)c4COC)c3)cnnc21 [Example 11, 7-Ethyl-4-(3-(1-ethyl-4-(methoxymethyl)-1H-benzo[d][1,2,3]triazol-5-yl)-4-fluorophenyl)-7H-imidazo[4,5-c]pyridazine] | – | –
11.6 | 38 | 104 | CCn1cnc2c(-c3ccc(F)c(-c4ccc5c(nnn5C)c4COC)c3)cnnc21 [Example 16, 7-Ethyl-4-(4-fluoro-3-(4-(methoxymethyl)-1-methyl-1H-benzo[d][1,2,3]triazol-5-yl)phenyl)-7H-imidazo[4,5-c]pyridazine] | – | –
8.95 | 48 | 120 | CCn1cnc2c(-c3ccc(F)c(-c4cc5c(cc4OC)N(C)C(=O)C(C)O5)c3)cnnc21 (stereo not drawn) [Example 26, 7-(5-(7-Ethyl-7H-imidazo[4,5-c]pyridazin-4-yl)-2-fluorophenyl)-6-methoxy-2,4-dimethyl-2H-benzo[b][1,4]oxazin-3(4H)-one] | – | –
8.56 | 38 | 115 | CCn1cnc2c(-c3ccc(F)c(-c4cc5oc(=O)n(CCOC)c5cc4OC)c3)cnnc21 [Example 28, 6-(5-(7-Ethyl-7H-imidazo[4,5-c]pyridazin-4-yl)-2-fluorophenyl)-5-methoxy-3-(2-methoxyethyl)benzo[d]oxazol-2(3H)-one] | – | –
5.71 | 70 | 124 | CCn1cnc2c(-c3ccc(F)c(-c4cc5oc(=O)n(CC6CC6)c5cc4OC)c3)cnnc21 [Example 34, 3-(Cyclopropylmethyl)-6-(5-(7-ethyl-7H-imidazo[4,5-c]pyridazin-4-yl)-2-fluorophenyl)-5-methoxybenzo[d]oxazol-2(3H)-one] | – | –

Compound | Ki [1, 4] [nM] | activation at 0.1 µM [2] [%] | activation at 0.1 µM [3] [%] | Ki [1] [nM] | Ki ([1]; read-out: α2 Ki, competition with 1 nM 3H-flunitrazepam, Ki calculated from IC50) [nM]
CCn1cnc2c(-c3ccc(F)c(-c4cc5c(cc4OC)N(CCN4CCCC4)C(=O)CO5)c3)cnnc21 [Example 17, 7-(5-(7-Ethyl-7H-imidazo[4,5-c]pyridazin-4-yl)-2-fluorophenyl)-6-methoxy-4-(2-(pyrrolidin-1-yl)ethyl)-2H-benzo[b][1,4]oxazin-3(4H)-one] | – | 47 | 125 | 14.4 | –
CCn1cnc2c(-c3ccc(F)c(-c4cc5c(cc4OC)N(CCN4CCOCC4)C(=O)CO5)c3)cnnc21 [Example 18, 7-(5-(7-Ethyl-7H-imidazo[4,5-c]pyridazin-4-yl)-2-fluorophenyl)-6-methoxy-4-(2-morpholinoethyl)-2H-benzo[b][1,4]oxazin-3(4H)-one] | – | 30 | 106 | – | 13.9
CCn1cnc2c(-c3ccc(F)c(-c4cc5c(cc4OC)N(CCN(C)C)C(=O)CO5)c3)cnnc21 [Example 22, 4-(2-(Dimethylamino)ethyl)-7-(5-(7-ethyl-7H-imidazo[4,5-c]pyridazin-4-yl)-2-fluorophenyl)-6-methoxy-2H-benzo[b][1,4]oxazin-3(4H)-one] | – | 53 | 115 | 10 | –

From patent US20260159519A1, “IMIDAZOPYRIDAZINE SUBSTITUTED BENZENE RING DERIVATIVE, PREPARATION METHOD, PHARMACEUTICAL COMPOSITION AND USE” (SHANGHAI SIMR BIOTECHNOLOGY CO., LTD., priority 2022, published 2026)
